Experimental data taken from ChEMBL document CHEMBL3244052, “Conformational analogues of dopamine. Synthesis and pharmacological activity of (E)- and (Z)-2-(3,4-dihydroxyphenyl)cyclopropylamine hydrochlorides” (J Med Chem, 1979).
The source made the active and inactive calls. No cut-off for these calls is given here.

Assays:
Canis familiaris [1] = assay: Cardiac stimulant activity in iv dosed dog assessed as increase in heart rate; type: functional, Canis lupus familiaris
Canis familiaris [2] = assay: Cardiac stimulant activity in iv dosed dog assessed as dose producing 50% increase in contractile force; type: functional, Canis lupus familiaris
Canis familiaris [3] = assay: Dopaminergic activity in mongrel dog assessed as renal vasodilation up to 4.96 x 10^-6 M administered to renal artery; type: functional, organism-based; conditions: Canis lupus familiaris
[4] = Agonist activity at alpha-adrenergic receptor in rabbit thoracic aorta assessed as […] contraction; type: tissue-based, Oryctolagus cuniculus

Cl.N[C@@H]1C[C@@H]1c1ccc(O)c(O)c1 (racemic)
Activity (Canis familiaris [1]): 32 bpm
Activity (Canis familiaris [2]): 312.3 ×10⁻⁸ mol/kg
ED50 (Canis familiaris [3]): inactive
EC50 [4]: 457 ×10⁻⁷ mol

Cl.N[C@@H]1C[C@H]1c1ccc(O)c(O)c1 (racemic)
Activity (Canis familiaris [1]): -2 bpm
Activity (Canis familiaris [2]): 19.5 ×10⁻⁸ mol/kg
ED50 (Canis familiaris [3]): inactive
EC50 [4]: 94 ×10⁻⁷ mol

CNC[C@H](O)c1cccc(O)c1.Cl [PHENYLEPHRINE HYDROCHLORIDE]
EC50 [4]: 2.3 ×10⁻⁷ mol

Cl.NCCc1ccc(O)c(O)c1 [DOPAMINE HYDROCHLORIDE]
Activity (Canis familiaris [1]): 5 bpm
Activity (Canis familiaris [2]): 4.8 ×10⁻⁸ mol/kg
EC50 [4]: 102 ×10⁻⁷ mol

CC(C)NCC(O)c1ccc(O)c(O)c1.Cl (centres undefined) [ISOPROTERENOL HYDROCHLORIDE]
Activity (Canis familiaris [1]): 16 bpm
Activity (Canis familiaris [2]): 0.014 ×10⁻⁸ mol/kg
